Data reported in article doi:10.1101/2021.01.21.427566v1, “Gradual opening of Smc arms in prokaryotic condensin” (biorxiv, 2021).

Assays:
[1] = molecular target: T1, Smc-ScpAB holo-complex (Bacillus subtilis, UniProt P51834); assay: coupled ATPase assay, ATP titration; assay type: biochemical; conditions: wild-type Smc with ScpAB, pH 7.5, 2 mM MgCl2, 25 °C
T1 construct: full-length native (untagged) Smc, ScpA and ScpB purified separately from E. coli and mixed stoichiometrically; with Segregation and condensation protein A; Segregation and condensation protein B
T1 sequence (P51834 1-1186): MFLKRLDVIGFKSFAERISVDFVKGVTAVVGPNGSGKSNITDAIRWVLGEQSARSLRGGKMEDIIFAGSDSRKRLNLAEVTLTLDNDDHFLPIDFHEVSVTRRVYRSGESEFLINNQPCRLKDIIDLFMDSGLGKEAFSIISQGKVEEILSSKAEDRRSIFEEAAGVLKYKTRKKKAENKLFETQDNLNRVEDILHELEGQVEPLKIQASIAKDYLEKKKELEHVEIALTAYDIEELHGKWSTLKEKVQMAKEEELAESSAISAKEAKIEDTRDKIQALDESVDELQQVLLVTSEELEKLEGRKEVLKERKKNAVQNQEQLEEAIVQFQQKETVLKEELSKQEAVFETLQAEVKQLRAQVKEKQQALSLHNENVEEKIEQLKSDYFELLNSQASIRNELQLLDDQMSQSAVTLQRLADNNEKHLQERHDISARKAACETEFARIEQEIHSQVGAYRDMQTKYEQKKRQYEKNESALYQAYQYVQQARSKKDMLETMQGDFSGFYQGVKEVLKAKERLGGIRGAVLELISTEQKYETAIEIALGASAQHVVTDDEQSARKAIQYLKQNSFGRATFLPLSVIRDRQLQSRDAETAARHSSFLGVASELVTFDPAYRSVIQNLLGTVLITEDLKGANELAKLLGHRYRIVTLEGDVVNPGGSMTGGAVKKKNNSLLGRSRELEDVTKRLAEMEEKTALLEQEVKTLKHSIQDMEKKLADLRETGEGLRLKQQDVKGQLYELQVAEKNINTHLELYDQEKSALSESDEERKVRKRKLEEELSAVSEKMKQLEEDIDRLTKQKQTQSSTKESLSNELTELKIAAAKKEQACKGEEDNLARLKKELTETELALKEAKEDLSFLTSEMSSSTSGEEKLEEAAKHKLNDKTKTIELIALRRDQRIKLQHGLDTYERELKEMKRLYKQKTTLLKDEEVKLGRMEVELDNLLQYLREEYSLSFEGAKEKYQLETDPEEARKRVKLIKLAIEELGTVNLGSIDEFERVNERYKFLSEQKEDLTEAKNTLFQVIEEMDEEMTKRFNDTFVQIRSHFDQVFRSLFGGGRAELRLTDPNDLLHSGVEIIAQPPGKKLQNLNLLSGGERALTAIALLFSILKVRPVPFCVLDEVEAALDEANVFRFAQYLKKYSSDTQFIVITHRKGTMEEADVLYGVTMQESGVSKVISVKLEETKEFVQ
T1 sequence (P35154 1-251 partner): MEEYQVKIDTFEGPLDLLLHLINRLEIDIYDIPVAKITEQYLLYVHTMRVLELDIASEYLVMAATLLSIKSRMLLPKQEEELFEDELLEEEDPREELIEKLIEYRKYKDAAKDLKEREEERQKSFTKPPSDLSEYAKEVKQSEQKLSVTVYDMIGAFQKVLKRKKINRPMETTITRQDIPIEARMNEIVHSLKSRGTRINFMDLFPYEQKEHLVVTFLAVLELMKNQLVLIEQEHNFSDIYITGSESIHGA
T1 sequence (P35155 1-197 partner): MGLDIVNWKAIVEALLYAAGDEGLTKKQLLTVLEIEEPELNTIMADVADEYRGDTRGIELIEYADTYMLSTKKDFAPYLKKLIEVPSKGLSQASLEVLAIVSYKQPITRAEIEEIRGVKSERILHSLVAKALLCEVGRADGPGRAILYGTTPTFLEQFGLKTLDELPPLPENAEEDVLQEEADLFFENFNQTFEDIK

[2] = molecular target: T2, Bsu Smc (Smc dimer without ScpAB) (Bacillus subtilis, UniProt P51834); assay: coupled ATPase assay, ATP titration; assay type: biochemical; conditions: wild-type Smc, no DNA, pH 7.5, 2 mM MgCl2, 25 °C
T2 construct: full-length native (untagged) Smc, expressed in E. coli BL21-Gold (DE3) from pET-22/pET-28; homodimer
T2 sequence (P51834 1-1186): T1 sequence (P51834 1-1186)

Nc1ncnc2c1ncn2[C@@H]1O[C@H](COP(=O)(O)OP(=O)(O)OP(=O)(O)O)[C@@H](O)[C@H]1O [ATP]
coupled ATPase assay, ATP titration [1]: increasing concentrations of ATP and in the absence or presence of dsDNA40 and ScpAB
coupled ATPase assay, ATP titration [2]: Measurement of ATP hydrolysis rates for Smc protein (wt), Smc(G302W) and Smc(G302E)
